Measurements: publication PMC6995558, “Biological Evaluation, Molecular Docking, and SAR Studies of Novel 2-(2,4-Dihydroxyphenyl)-1H- Benzimidazole Analogues” (Biomolecules, 2019)

Experiments:
BuChE = target: T1, BuChE (Equus caballus, UniProt P81908); test: Kinetic characterization of BuChE inhibition (Lineweaver–Burk); type: biochemical; settings: for υmax: BuChE; for Mechanism of BuChE inhibition: Lineweaver–Burk plots analysis
T1 construct: butyrylcholinesterase (BuChE, E.C. 3.1.1.8, from equine serum); purchased Sigma-Aldrich (Steinheim, Germany); host or cells: equine serum (natural source)
Description: (§1) The kinetic analysis was evaluated according to the Ellman’s method. Plots of 1/velocity versus the reciprocal substrate concentration were constructed at different final concentrations of the ATC iodide in the range of 100–10 µM. The studies were carried out using the final concentrations of 1 inhibitor: (AChE: 0.25, 1.0 µM; BuChE: 0.25, 1.2 µM) and 5 (AChE: 0.1, 1.0 µM; BuChE: 0.25, 0.55 µM) and without it. The tested medium contained DTNB solution (0.4 mg/mL), AChE solution (2 U/mL) or BuChE solution (4 U/mL), solution of the examined compound, and different concentrations of the ATC iodide substrate solution. Absorbance was detected at 412 nm at room temperature after 7 min. The obtained data were calculated and presented on the Lineweaver–Burk plot. The determined the Michaelis-Menten constant (KM) and the maximum velocity of the enzyme (υmax) values were used to define the type of enzyme inhibition.
The mechanism of AChE inhibition was investigated for inhibitors 1 and 5 as the most valuable compounds. The Lineweaver–Burk plots present 1/velocity versus 1/substrate concentrations in the range of 100–10 µM for compounds 5 (0.1, 1.0 µM) and 1 (0.25, 1.0 µM) and without inhibitors (0 µM) (Figure 2).

[1] = target: T2, Amyloid β-peptide (1–42) (Aβ42) (Homo sapiens, UniProt P05067); test: biochemical; settings: ThT fluorescence, 24 h at 37 °C; means ± SD of three experiments; read-out: IC50(Aβ(1–42)) self-induced aggregation
T2 construct: Amyloid β-peptide, (1–42) (Aβ42), was purchased from Aldrich; purchased Aldrich
Description: Amyloid β-peptide, (1–42) (Aβ42), was purchased from Aldrich. Aβ42 was diluted in the phosphate buffer (pH 8.0) to obtain a 125.8 µM solution. The compounds under study were first dissolved in a small amount of methanol, and then further diluted in the phosphate buffer to the final concentration of 5–160 μM. To study the Aβ42 aggregation inhibition, the fluorescence emission of thioflavin T (ThT) was followed with curcumin as the reference compound [35, 36]. At first, the Aβ42 (10 μL) samples and the tested compounds (10 μL) were diluted with the phosphate buffer (60 μL) and then they were incubated for 24 h at 37 °C without stirring. As for the control, a sample of the peptide was incubated without the inhibitor. The tests were carried out in black, flat-bottom, 96-well plates. Then 20 µL of 2.5 µM ThT in 50 mM glycine–NaOH (pH 8.5) was added and incubated for 5 min. Fluorescence was monitored with the excitation at 446 nm and the emission at 490 nm. A time scan of fluorescence was performed and the intensity values reached the plateau (300 s). […]. The reported values were obtained as the mean ± SD of triplicate of three independent experiments.
Nowadays, the amyloid hypothesis has become the dominating paradigm for understanding AD [44]. Aβ(1–42) is the most amyloidogenic Aβ fragment found in the AD plaques. […].

AChE = target: T3, AChE (Homo sapiens, UniProt P22303); test: Kinetic characterization of AChE inhibition (Lineweaver–Burk); type: biochemical; settings: for υmax: AChE; for Type of AChE inhibition: Lineweaver–Burk plots analysis
T3 construct: Acetylcholinesterase (AChE, E.C. 3.1.1.7, from human erythrocytes); purchased Sigma-Aldrich (Steinheim, Germany); host or cells: human erythrocytes (natural source)
Description: as §1, with “The studies were carried out using the final concentrations of 1 inhibitor: (AChE: 0.25, 1.0 µM; BuChE: 0.25, 1.2 µM) and 5 (AChE: 0.1, 1.0 µM; BuChE: 0.25, 0.55 µM) and without it.” left out
The mechanism of AChE inhibition was investigated for inhibitors 1 and 5 as the most valuable compounds. […]

[2] = In vitro antioxidant activity assay (DPPH radical scavenging); settings: DPPH 100 μM in methanol, 37 °C, 30 min; means ± SD of three experiments; read-out: IC50(DPPH) radical scavenging effect
Description: Antioxidant activity of each compound and standards (rutin) was assessed based on the radical scavenging effect of stable DPPH free radical. An amount of 10 μL of each tested compound or standard series of different concentrations (from 0.0 to 100 µM) was added to 9 mL of methanol solution of 2,2-diphenyl-1-picrylhydrazyl (DPPH) (100 μM). After incubation at 37 °C for 30 min, decrease in the absorbance of each solution was measured at 520 nm. The absorbance of the blank sample containing the same amount of DMSO and DPPH solution was also prepared and measured. All experiments were conducted in triplicate. The scavenging potential was compared with a solvent control (0% radical scavenging) and the standard compound. Radical scavenging activity (%AA) was calculated by the following formula: (%AA) = [(A0 − A1)/A0] × 100%(3) in which (A0) is the absorbance of the blank sample and (A1) is the absorbance of the tested compound (t = 30 min).
Reactive oxygen species are a causal factor in the process of aging and the cumulative damage has been associated with AD [45]. In this study, the DPPH radical scavenging activity of the newly synthesized compounds was estimated using the Brand-Williams method.

[3] = target: T4, Acetylcholinesterase (AChE, E.C. 3.1.1.7, from human erythrocytes) (Homo sapiens, UniProt P22303); test: biochemical; type: biochemical; settings: for Selectivity for AChE: IC50(BuChE)/IC50(AChE); for IC50: means ± SD of three independent experiments
T4 construct: Acetylcholinesterase (AChE, E.C. 3.1.1.7, from human erythrocytes); purchased Sigma-Aldrich (Steinheim, Germany); host or cells: human erythrocytes (natural source)
Description: (§2) The details were described previously.
(§3) Their potency was determined using the modified Ellman’s method and expressed as the half of maximal inhibitory concentration, IC50 [34].

[4] = target: T5, butyrylcholinesterase (BuChE, E.C. 3.1.1.8, from equine serum) (Equus caballus, UniProt P81908); test: biochemical; settings: means ± SD of three experiments; read-out: BuChE IC50
T5 construct: butyrylcholinesterase (BuChE, E.C. 3.1.1.8, from equine serum); purchased Sigma-Aldrich (Steinheim, Germany); host or cells: equine serum (natural source)
Description: as §2, §3

[5] = RP-18 HPLC chromatography lipophilicity estimation; type: physicochemical; settings: for −S (slope): methanol/acetate buffer pH 4.0; for log kw (intercept): methanol/acetate buffer pH 4.0, extrapolated to pure water
Description: The Eurosil Bioselect C18 (5 μm, 300 × 4.6 mm) column was used as the stationary phase. The mobile phase consisted of different volume mixtures of methanol and 20 mM acetate buffer as the aqueous phase to give pH 4.0. The organic modifier concentration ranged from 0.30 to 0.75, depending on the structure of the compound at 0.05 (0.1) intervals. The flow rate was 0.5 cm^3·min^−1 at room temperature. Measurements were made at 292 nm. The retention time of an unretained solute (t0) was determined by the injection of a small amount of acetone dissolved in water. […] This is described by the Soczewiński–Wachtmeister dependence: log k = log kw + S (% organic modifier)(1) in which log kw is the retention factor of a solute with pure water as the mobile phase (intercept) and S is the regression curve (slope). The log k values were calculated as log k = log (tR − t0)/t0, where tR is the retention time of a solute and t0 is the retention time of an unretained solute.
To find the structure–activity relationships, some quantities of the compounds were estimated (Table 5). They included the lipophilicity parameter log kw obtained by RP-HPLC and calculated in silico log P, the topological polar surface area (tPSA), and the molar refractivity (MR) (Table 5). The log kw and S parameters obtained by the extrapolation technique are commonly used as lipophilicity descriptors.

[6] = inhibitor concentration 0.25 µM

T4 sequence (P22303 32-617 isoform P22303-2 limits assumed): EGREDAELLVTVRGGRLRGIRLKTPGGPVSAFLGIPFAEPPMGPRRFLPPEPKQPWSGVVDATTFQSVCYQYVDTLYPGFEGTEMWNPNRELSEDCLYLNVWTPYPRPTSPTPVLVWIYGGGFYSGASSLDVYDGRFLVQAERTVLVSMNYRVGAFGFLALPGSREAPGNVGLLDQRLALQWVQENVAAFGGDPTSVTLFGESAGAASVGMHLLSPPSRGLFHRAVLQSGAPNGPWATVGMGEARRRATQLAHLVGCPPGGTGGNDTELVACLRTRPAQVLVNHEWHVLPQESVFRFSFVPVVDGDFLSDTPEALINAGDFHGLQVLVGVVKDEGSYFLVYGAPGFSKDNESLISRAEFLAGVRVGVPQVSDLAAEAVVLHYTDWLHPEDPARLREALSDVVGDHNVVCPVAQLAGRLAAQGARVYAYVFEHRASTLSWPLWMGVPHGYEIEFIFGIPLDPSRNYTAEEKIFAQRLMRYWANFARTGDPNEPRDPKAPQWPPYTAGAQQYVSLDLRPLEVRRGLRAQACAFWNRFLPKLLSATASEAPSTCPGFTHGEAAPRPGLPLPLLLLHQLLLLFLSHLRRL
T3 sequence (P22303 32-617 isoform P22303-2 limits assumed): as above
T1 sequence (P81908 whole entry): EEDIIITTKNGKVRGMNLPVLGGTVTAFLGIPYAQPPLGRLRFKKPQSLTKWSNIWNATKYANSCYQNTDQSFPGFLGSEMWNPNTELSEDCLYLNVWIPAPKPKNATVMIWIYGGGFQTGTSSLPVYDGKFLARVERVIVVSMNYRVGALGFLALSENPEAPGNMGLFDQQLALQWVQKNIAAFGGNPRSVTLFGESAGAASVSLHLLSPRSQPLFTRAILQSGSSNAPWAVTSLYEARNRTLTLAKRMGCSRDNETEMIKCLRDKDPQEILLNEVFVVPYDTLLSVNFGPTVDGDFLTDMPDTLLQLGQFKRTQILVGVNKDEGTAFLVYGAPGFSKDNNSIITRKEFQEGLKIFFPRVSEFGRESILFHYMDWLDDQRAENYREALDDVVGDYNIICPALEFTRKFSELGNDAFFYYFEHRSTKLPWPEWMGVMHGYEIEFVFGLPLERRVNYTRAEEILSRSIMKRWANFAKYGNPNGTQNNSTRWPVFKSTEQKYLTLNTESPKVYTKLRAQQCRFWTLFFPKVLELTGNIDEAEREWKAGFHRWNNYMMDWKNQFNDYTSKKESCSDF
T2 sequence (P05067 672-713 limits assumed): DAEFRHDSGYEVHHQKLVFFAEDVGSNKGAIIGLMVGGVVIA
T5 sequence (P81908 whole entry): as the sequence (P81908 whole entry) above

| SMILES | υmax (BuChE; [6]) [A min^−1] | υmax (BuChE; inhibitor concentration 1.2 µM) [A min^−1] | Mechanism of BuChE inhibition (BuChE) | IC50 [1] [nM] | υmax (AChE; inhibitor concentration 0.25 μM) [A min^−1] | υmax (AChE; inhibitor concentration 1.0 μM) [A min^−1] | Type of AChE inhibition (AChE) | IC50 [2] [nM] | Activity against AChE (in words) [3] | Selectivity for AChE [3] | IC50 [3] [nM] | IC50 [4] [nM] | −S (slope) [5] | log kw (intercept) [5] | υmax (BuChE; inhibitor concentration 0.55 µM) [A min^−1] | υmax (AChE; inhibitor concentration 0.15 μM) [A min^−1] |
| --- | --- | --- | --- | --- | --- | --- | --- | --- | --- | --- | --- | --- | --- | --- | --- | --- |
| Oc1cc(O)c(-c2nc3ccccc3[nH]2)cc1Cl [Compound 1, 4-(1H-benzimidazol-2-yl)-6-chlorobenzene-1,3-diol] | 322.58 | 163.93 | the same relationships as in the case of AChE | 48000 ± 3430 | 135.14 | 105.26 | mixed type of inhibition | 641 ± 30 | active | 55.8 | 76 ± 2 | 4240 ± 205 | 3.896 | 3.602 | – | – |
| COc1ccc2nc(-c3ccc(O)c(C)c3O)[nH]c2c1 [Compound 5, 4-(6-Methoxy-1H-benzimidazol-2-yl)-2-methylbenzene-1,3-diol] | 196.08 | – | the same relationships as in the case of AChE | 33100 ± 2070 | – | 120.48 | mixed type of inhibition | 627 ± 110 | active | 1.4 | 86 ± 21 | 117 ± 41 | 5.179 | 4.591 | 178.57 | 175.44 |
